Reference: BigSolDB 2.1

N=C(N)NC(N)=S
solubility (mole fraction)
Conditions	283.15 K	288.15 K	293.15 K	298.15 K	303.15 K	308.15 K	313.15 K	318.15 K	323.15 K
in 1,4-dioxane	–	0.00901	0.0107	0.0127	0.0151	0.0178	0.0208	0.0241	0.028
in NMP	0.0139	0.0166	0.0195	0.0236	0.0281	0.0329	0.0389	0.0455	0.0532
in acetone	0.0103	0.0123	0.0145	0.0175	0.0203	0.0241	0.028	0.0324	0.0371
in acetonitrile	0.00365	0.00428	0.00504	0.00591	0.00688	0.008	0.00927	0.0105	0.0121
in cyclohexane	3.6e-05	4.3e-05	5e-05	6e-05	7e-05	8.4e-05	9.9e-05	0.000118	0.00014
in ethanol	0.0045	0.00521	0.00605	0.00706	0.00817	0.00933	0.0106	0.0122	0.014
in ethyl acetate	0.00196	0.00245	0.00314	0.00391	0.00471	0.00569	0.00679	0.00797	0.0094
in isopropanol	0.00124	0.00167	0.00223	0.00286	0.00363	0.00456	0.00559	0.0069	0.00854
in methanol	0.00558	0.00635	0.00744	0.0089	0.0105	0.0123	0.0143	0.0165	0.0192
in n-butanol	0.000477	0.000749	0.00111	0.00162	0.00226	0.00314	0.00432	0.00575	0.0076
in n-propanol	0.00271	0.00326	0.00393	0.00468	0.00564	0.00676	0.00782	0.00901	0.0104
in toluene	0.000126	0.000137	0.000149	0.00016	0.000174	0.000189	0.000206	0.000223	0.000243
